Drawing on patent US11542259B2, “Compounds for the treatment of kinase-dependent disorders” (Exelixis, Inc., priority 2018, dated 2023), this text covers IC50 for 12 compounds.

The term IC50 denotes the midpoint of a concentration-inhibition curve.

Experiment [1] has as its target Human Met (residues R974-S1390 with A1209G and V1290L) (Homo sapiens, UniProt P08581). The experiment can be described thus: Human Met kinase assay (33P radiometric, KinaseProfiler). The class given is biochemical. Conditions: 10 μM ATP, read-out: c-Met IC50.
A further experiment addresses Mer (Homo sapiens (Human), UniProt Q12866). In words: Mer autophosphorylation ELISA in transient transfected 293A cells. The class given is cell-based. The following applies: cellular, MERTK transfected 293A cells. An outline of the steps:
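293A cells transiently transfected with human MERTK DNA, then treated 1 h with 8-point compound dilutions in serum-free medium (0.3% DMSO). Phospho-Mer in lysates quantified by sandwich ELISA against phospho-Mer standard; normalised to DMSO (100%) and reference inhibitor (0%), IC50 from 4-parameter logistic fit.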
Background: ELISA stands for enzyme-linked immunosorbent assay.

The target in the next experiment is KDR (Homo sapiens (Human), UniProt P35968). In words: KDR autophosphorylation ELISA in HUVEC cells. The following applies: cellular, VEGF165 stimulated. The class given is cell-based. An outline of the steps:
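Phospho-KDR levels in lysates were measured by ELISA and referenced to stimulated-vehicle (100%) and unstimulated (0%) wells, IC50 from 4-parameter logistic fit. HUVEC, starved 24 h in serum-free medium, received an 8-point compound series (0.3% DMSO) for 1 h before a 5 min 100 ng/mL VEGF165 challenge.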

Chain of Mer (Q12866 21-999): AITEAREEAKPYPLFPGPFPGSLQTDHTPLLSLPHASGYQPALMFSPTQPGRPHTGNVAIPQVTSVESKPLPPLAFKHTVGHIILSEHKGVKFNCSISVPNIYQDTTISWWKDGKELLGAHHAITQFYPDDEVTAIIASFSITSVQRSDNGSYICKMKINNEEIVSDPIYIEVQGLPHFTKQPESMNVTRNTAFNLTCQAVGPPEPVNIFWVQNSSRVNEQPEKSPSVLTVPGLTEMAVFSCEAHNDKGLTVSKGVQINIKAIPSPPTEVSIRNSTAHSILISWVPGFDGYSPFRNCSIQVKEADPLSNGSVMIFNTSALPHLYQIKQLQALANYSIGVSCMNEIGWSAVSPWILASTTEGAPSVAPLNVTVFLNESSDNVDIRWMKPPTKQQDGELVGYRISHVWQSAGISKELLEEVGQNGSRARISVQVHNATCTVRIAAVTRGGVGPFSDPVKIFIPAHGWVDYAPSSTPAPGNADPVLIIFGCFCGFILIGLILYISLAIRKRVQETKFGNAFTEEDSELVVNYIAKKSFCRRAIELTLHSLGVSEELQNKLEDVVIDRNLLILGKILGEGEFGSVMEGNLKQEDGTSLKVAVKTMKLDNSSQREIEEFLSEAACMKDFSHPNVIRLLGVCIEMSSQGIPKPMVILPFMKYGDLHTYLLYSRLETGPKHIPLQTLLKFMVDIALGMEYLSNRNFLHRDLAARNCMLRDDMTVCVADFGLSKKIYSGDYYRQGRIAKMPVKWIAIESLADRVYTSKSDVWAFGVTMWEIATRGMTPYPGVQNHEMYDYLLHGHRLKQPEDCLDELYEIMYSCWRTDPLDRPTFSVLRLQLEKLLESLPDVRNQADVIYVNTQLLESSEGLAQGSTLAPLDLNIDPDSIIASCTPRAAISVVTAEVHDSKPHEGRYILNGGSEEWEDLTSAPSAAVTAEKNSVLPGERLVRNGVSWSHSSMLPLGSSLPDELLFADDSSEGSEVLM
Chain of KDR (P35968 20-1356): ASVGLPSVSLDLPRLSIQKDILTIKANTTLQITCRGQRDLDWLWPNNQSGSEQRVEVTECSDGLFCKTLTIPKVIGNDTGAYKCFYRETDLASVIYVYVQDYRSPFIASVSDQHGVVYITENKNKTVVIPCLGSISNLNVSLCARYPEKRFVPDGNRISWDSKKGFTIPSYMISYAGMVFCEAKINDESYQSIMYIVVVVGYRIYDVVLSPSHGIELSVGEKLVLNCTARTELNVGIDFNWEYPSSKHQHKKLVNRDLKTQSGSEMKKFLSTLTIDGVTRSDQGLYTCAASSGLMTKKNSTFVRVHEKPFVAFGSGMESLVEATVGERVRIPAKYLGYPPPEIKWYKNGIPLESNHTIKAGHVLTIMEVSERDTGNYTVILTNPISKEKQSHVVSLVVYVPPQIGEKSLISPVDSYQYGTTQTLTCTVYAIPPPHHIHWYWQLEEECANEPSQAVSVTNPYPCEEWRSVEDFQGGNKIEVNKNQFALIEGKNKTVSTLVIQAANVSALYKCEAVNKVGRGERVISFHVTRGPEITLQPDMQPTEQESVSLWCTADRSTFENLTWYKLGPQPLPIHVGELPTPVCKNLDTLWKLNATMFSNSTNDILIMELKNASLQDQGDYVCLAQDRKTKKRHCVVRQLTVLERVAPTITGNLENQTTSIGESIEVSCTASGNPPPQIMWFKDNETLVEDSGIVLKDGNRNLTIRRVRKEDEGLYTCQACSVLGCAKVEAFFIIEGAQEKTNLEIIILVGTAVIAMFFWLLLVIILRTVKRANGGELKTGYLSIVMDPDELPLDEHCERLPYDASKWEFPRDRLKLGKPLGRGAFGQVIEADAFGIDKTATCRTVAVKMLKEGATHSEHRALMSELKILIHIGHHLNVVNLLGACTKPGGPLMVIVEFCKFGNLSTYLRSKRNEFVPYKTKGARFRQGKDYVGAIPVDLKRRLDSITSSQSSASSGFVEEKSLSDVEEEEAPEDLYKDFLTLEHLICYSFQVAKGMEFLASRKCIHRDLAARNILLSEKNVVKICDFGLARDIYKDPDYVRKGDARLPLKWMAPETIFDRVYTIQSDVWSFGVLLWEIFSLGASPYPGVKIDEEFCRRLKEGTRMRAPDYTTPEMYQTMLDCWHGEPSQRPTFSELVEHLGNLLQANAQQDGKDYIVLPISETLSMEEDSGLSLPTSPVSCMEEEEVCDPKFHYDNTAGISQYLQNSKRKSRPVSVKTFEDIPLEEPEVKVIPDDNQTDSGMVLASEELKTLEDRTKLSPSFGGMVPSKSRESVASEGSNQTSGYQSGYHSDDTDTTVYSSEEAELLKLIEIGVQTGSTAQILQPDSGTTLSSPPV

Regarding `CNC(=O)c1cc2c(Oc3ccc(NC(=O)C4(C(=O)Nc5ccc(F)cc5)CC4)cc3)ccnc2cc1OC` [Compound 8, 1-N′-(4-fluorophenyl)-1-N-[4-[7-methoxy-6-(methylcarbamoyl)quinolin-4-yl]oxyphenyl]cyclopropane-1,1-dicarboxamide], the IC50 (in experiment [1]; at Mer; against KDR) was at most 10 nM throughout.

As to `CNC(=O)c1ccc2c(Oc3ccc(NC(=O)C4(C(=O)Nc5ccc(F)cc5)CC4)cc3)ccnc2c1` [Compound 165, 1-N′-(4-fluorophenyl)-1-N-[4-[7-(methylcarbamoyl)quinolin-4-yl]oxyphenyl]cyclopropane-1,1-dicarboxamide], the values for the IC50 (in experiment [1]; against Mer; on KDR) were at most 10 nM, 10 to 100 nM and at most 10 nM, respectively.

As to `Cc1cc2c(Oc3ccc(NC(=O)C4(C(=O)Nc5ccc(F)cc5)CC4)cc3)ccnc2cc1C(N)=O` [Compound 142, 1-N-[4-(7-carbamoyl-6-methylquinolin-4-yl)oxyphenyl]-1-N′-(4-fluorophenyl)cyclopropane-1,1-dicarboxamide], the IC50 in experiment [1] was at most 10 nM; against Mer it was 10 to 100 nM; against KDR it was 10 to 100 nM.

In the case of `NC(=O)c1cc2c(Oc3ccc(NC(=O)C4(C(=O)Nc5ccc(F)cc5)CC4)cc3)ccnc2cc1OCCCN1CCOCC1` [Compound 98, 1-N-[4-[6-carbamoyl-7-(3-morpholin-4-ylpropoxy)quinolin-4-yl]oxyphenyl]-1-N′-(4-fluorophenyl)cyclopropane-1,1-dicarboxamide], the IC50 in experiment [1] was at most 10 nM; against Mer, 10 to 100 nM; against KDR, at most 10 nM.

As for `COc1cc2nccc(Oc3ccc(NC(=O)C4(C(=O)Nc5ccc(F)cc5)CC4)cc3)c2cc1-c1nnco1` [Compound 220, 1-N′-(4-Fluorophenyl)-1-N-[4-[7-methoxy-6-(1,3,4-oxadiazol-2-yl)quinolin-4-yl]oxyphenyl]cyclopropane-1,1-dicarboxamide], the IC50 (in experiment [1]; on Mer; against KDR) was at most 10 nM in each case.

Regarding `CNC(=O)c1cc2c(Oc3ccc(NC(=O)C4(C(=O)Nc5ccc(F)cc5)CC4)cc3F)ccnc2cc1OC` [Compound 135, 1-N′-[3-fluoro-4-[7-methoxy-6-(methylcarbamoyl)quinolin-4-yl]oxyphenyl]-1-N-(4-fluorophenyl)cyclopropane-1,1-dicarboxamide], the IC50 (in experiment [1]; against Mer; at KDR) was at most 10 nM in each case.

In the case of `NC(=O)c1ccc2c(Oc3ccc(NC(=O)C4(C(=O)Nc5ccc(F)cc5)CC4)cc3)ccnc2c1` [Compound 164, 1-N-[4-(7-carbamoylquinolin-4-yl)oxyphenyl]-1-N′-(4-fluorophenyl)cyclopropane-1,1-dicarboxamide], the IC50 in experiment [1] is at most 10 nM; at Mer, 10 to 100 nM; against KDR, 10 to 100 nM.

Take `COc1cc2nccc(Oc3ccc(NC(=O)C4(C(=O)Nc5ccc(F)cc5)CC4)cc3)c2cc1S(N)(=O)=O` [Compound 206, 1-N′-(4-Fluorophenyl)-1-N-[4-(7-methoxy-6-sulfamoylquinolin-4-yl)oxyphenyl]cyclopropane-1,1-dicarboxamide]: the IC50 in experiment [1] was at most 10 nM; against Mer, 10 to 100 nM; against KDR, at most 10 nM.

In the case of `COc1cc2nccc(Oc3ccc(NC(=O)C4(C(=O)Nc5ccc(F)cc5)CC4)cc3)c2cc1-c1ccn[nH]1` [Compound 185, 1-N′-(4-fluorophenyl)-1-N-[4-[7-methoxy-6-(1H-pyrazol-5-yl)quinolin-4-yl]oxyphenyl]cyclopropane-1,1-dicarboxamide], the IC50 (in experiment [1]; against Mer; against KDR) was at most 10 nM throughout.

`CNC(=O)c1cc2c(Oc3ccc(NC(=O)C4(C(=O)Nc5ccc(F)cc5)CC4)cc3Cl)ccnc2cc1OC` [Compound 134, 1-N′-[3-chloro-4-[7-methoxy-6-(methylcarbamoyl)quinolin-4-yl]oxyphenyl]-1-N-(4-fluorophenyl)cyclopropane-1,1-dicarboxamide]: the IC50 (in experiment [1]; at Mer; at KDR) was at most 10 nM each time.

As to `COc1cc2nccc(Oc3ccc(NC(=O)C4(C(=O)Nc5ccc(F)cc5)CC4)cc3)c2cc1C(N)=O` [Compound 7, 1-N-[4-(6-carbamoyl-7-methoxyquinolin-4-yl)oxyphenyl]-1-N′-(4-fluorophenyl)cyclopropane-1,1-dicarboxamide], the IC50 (in experiment [1]; against Mer; against KDR) was at most 10 nM throughout.

As to `COc1cc2nccc(Oc3ccc(NC(=O)C4(C(=O)Nc5ccc(F)cc5)CC4)cc3Cl)c2cc1C(N)=O` [Compound 132, 1-N′-[4-(6-carbamoyl-7-methoxyquinolin-4-yl)oxy-3-chlorophenyl]-1-N-(4-fluorophenyl)cyclopropane-1,1-dicarboxamide], the IC50 (in experiment [1]; against Mer; at KDR) was at most 10 nM throughout.
